Data published in patent US20070021419A1, “2-Aminophenyl-4-phenylpyrimidines as kinase inhibitors” (Cyclacel Limited, priority 2003, published 2007).

How the values were obtained:
[1] = target: CDK9/cyclin T1 (Homo sapiens, UniProt P50750); assay: Kinase assay, radioactive phosphate incorporation, CDK9/cyclin T1; type: biochemical; settings: 100 μM ATP, 30° C.; read-out: Kinase inhibition IC50 CDK9/cyclin T1
Method in brief: (§1)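 Inhibition is measured as reduced transfer of radioactive phosphate to a polypeptide substrate by 2-4 μg of recombinant enzyme. Mixtures with Mg/ATP (100 μM ATP, 15 mM MgCl2, [γ-32P]-ATP) in pH 7.4 MOPS-based buffer incubate at 30° C, are stopped on ice, filtered and counted.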

[2] = target: CDK7/cyclin H (Homo sapiens, UniProt P50613); assay: Kinase assay, radioactive phosphate incorporation, CDK7/cyclin H; type: biochemical; settings: 100 μM ATP, 30° C.; read-out: Kinase inhibition IC50 CDK7/cyclin H
Sequence of CDK7/cyclin H (P50613 whole entry, species assumed): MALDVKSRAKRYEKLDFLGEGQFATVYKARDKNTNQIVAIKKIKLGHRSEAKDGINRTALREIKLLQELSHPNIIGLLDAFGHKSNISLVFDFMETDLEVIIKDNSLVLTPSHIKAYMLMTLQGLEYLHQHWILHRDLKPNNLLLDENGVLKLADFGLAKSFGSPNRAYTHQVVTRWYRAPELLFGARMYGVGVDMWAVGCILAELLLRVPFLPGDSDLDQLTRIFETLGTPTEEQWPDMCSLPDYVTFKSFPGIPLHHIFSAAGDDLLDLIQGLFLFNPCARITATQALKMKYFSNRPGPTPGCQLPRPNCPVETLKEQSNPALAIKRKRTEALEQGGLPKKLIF
Sequence of CDK7/cyclin H (P51946 whole entry partner, species assumed): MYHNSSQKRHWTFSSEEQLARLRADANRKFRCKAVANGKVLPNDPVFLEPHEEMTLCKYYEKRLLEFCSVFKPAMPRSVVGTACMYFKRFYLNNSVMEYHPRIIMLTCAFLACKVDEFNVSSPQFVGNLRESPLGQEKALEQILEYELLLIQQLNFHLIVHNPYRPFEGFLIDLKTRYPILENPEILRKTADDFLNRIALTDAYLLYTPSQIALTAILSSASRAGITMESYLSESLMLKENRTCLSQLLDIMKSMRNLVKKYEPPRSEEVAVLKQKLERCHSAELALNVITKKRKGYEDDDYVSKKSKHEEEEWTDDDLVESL
Method in brief: as §1

[3] = target: T1, Aurora-A (Homo sapiens, UniProt O14965); assay: Kinase assay, radioactive phosphate incorporation, Aurora-A; type: biochemical; settings: 100 μM ATP, 30° C.; read-out: Kinase inhibition IC50 Aurora-A
T1 sequence (O14965 1-403): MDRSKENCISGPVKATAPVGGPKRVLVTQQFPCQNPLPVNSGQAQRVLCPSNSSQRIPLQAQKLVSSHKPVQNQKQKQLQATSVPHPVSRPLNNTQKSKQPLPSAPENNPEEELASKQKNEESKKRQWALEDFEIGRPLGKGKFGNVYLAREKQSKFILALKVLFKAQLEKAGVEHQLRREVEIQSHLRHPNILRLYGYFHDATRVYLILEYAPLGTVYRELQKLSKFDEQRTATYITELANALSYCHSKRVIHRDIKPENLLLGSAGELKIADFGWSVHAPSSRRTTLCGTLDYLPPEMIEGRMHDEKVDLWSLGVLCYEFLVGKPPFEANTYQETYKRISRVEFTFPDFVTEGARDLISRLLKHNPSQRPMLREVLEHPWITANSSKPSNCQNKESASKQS
Method: (§2) The compounds from the examples above were investigated for their ability to inhibit the enzymatic activity of various protein kinases. This was achieved by measurement of incorporation of radioactive phosphate from ATP into appropriate polypeptide substrates. Recombinant protein kinases and kinase complexes were produced or obtained commercially. Assays were performed using 96-well plates and appropriate assay buffers (typically 25 mM β-glycerophosphate, 20 mM MOPS, 5 MM EGTA, 1 mM DTT, 1 mM Na3VO3, pH 7.4), into which were added 2-4 μg of active enzyme with appropriate substrates. The reactions were initiated by addition of Mg/ATP mix (15 mM MgCl2+100 μM ATP with 30-50 kBq per well of [γ-^32P]-ATP) and mixtures incubated as required at 30° C. Reactions were stopped on ice, followed by filtration through p81 filterplates or GF/C filterplates (Whatman Polyfiltronics, Kent, UK). After washing 3 times with 75 mM aq orthophosphoric acid, plates were dried, scintillant added and incorporated radioactivity measured in a scintillation counter (TopCount, Packard Instruments, Pangbourne, Berks, UK). Compounds for kinase assay were made up as 10 mM stocks in DMSO and diluted into 10% DMSO in assay buffer.

[4] = target: CDK1/cyclin B (Homo sapiens, UniProt P06493); assay: Kinase assay, radioactive phosphate incorporation, CDK1/cyclin B; type: biochemical; settings: 100 μM ATP, 30° C.; read-out: Kinase inhibition IC50 CDK1/cyclin B
Sequence of CDK1/cyclin B (P06493 whole entry, species assumed): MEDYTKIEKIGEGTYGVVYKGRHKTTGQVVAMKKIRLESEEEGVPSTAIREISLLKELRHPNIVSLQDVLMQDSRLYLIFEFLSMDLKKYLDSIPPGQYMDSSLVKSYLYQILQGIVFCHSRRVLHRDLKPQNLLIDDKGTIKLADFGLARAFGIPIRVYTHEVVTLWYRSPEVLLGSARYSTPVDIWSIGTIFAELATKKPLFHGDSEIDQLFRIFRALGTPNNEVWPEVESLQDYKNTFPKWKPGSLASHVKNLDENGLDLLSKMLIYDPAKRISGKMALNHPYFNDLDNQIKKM
Sequence of CDK1/cyclin B (P14635 whole entry partner, species assumed): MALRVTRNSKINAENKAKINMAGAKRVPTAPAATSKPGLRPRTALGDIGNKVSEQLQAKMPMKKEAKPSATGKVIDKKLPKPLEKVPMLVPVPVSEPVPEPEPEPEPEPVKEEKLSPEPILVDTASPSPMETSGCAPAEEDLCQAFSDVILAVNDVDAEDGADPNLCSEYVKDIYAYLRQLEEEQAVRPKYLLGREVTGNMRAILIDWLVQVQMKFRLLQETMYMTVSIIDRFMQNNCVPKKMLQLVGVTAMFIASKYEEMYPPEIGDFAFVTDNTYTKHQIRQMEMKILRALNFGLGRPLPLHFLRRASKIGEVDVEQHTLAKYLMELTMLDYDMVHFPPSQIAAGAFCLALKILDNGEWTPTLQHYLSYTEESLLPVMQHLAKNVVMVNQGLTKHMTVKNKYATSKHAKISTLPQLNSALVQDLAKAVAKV
Method: as §2

[5] = target: CDK4/cyclin D1 (Homo sapiens, UniProt P11802); assay: Kinase assay, radioactive phosphate incorporation, CDK4/cyclin D1; type: biochemical; settings: 100 μM ATP, 30° C.; read-out: Kinase inhibition IC50 CDK4/cyclin D1
Sequence of CDK4/cyclin D1 (P11802 whole entry, species assumed): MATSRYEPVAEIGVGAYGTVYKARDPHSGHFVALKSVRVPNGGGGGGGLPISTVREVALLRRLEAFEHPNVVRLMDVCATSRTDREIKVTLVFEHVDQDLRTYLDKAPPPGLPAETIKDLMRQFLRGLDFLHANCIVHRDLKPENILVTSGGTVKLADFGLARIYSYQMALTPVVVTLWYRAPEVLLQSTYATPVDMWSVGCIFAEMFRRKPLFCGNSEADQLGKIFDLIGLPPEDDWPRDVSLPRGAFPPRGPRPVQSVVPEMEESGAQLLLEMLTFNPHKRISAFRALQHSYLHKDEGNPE
Sequence of CDK4/cyclin D1 (P24385 whole entry partner, species assumed): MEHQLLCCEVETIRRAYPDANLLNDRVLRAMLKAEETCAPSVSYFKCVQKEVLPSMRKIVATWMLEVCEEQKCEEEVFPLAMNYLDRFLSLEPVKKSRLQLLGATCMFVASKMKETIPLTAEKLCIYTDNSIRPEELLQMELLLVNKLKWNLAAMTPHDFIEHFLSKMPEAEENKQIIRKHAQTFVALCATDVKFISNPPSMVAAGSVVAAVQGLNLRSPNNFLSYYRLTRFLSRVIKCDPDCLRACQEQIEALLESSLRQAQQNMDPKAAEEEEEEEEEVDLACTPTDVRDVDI
Method in brief: as §1

[6] = target: CDK2/cyclin A (Homo sapiens, UniProt P24941); assay: Kinase assay, radioactive phosphate incorporation, CDK2/cyclin A; type: biochemical; settings: 100 μM ATP, 30° C.; read-out: Kinase inhibition IC50 CDK2/cyclin A
Method in brief: as §1

[7] = target: GSK3β (Homo sapiens, UniProt P49841); assay: Kinase assay, radioactive phosphate incorporation, GSK3β; type: biochemical; settings: 100 μM ATP, 30° C.; read-out: Kinase inhibition IC50 GSK3β
Sequence of GSK3β (P49841 whole entry, species assumed): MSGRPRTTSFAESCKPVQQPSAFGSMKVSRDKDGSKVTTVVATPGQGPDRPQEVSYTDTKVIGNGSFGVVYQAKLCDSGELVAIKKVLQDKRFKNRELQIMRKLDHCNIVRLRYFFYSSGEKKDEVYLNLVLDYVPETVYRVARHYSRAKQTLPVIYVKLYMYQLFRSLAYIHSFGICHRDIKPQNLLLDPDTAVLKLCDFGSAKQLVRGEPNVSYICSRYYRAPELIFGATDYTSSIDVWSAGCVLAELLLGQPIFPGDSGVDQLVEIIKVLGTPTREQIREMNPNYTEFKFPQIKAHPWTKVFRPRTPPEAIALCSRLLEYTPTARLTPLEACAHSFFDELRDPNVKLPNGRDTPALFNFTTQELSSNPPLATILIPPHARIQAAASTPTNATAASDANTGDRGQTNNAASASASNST
Method in brief: as §1

[8] = target: CDK2/cyclin E (Homo sapiens, UniProt P24941); assay: Kinase assay, radioactive phosphate incorporation, CDK2/cyclin E; type: biochemical; settings: 100 μM ATP, 30° C.; read-out: Kinase inhibition IC50 CDK2/cyclin E
Method in brief: as §1

[9] = tested on: transformed human cell lines (A549, HT29, Saos-2); assay: 72-h MTT cytotoxicity assay, average of cell lines; type: cell-based; settings: read-out: 72-h MTT IC50 Average, average of A549, HT29, Saos-2
Method in brief: (§3)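 Standard proliferation test: 72 h compound exposure at 37° C in triplicate, followed by MTT staining and DMSO solubilisation.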

[10] = tested on: HT29; assay: 72-h MTT cytotoxicity assay, HT29; type: cell-based; settings: Homo sapiens, HT-29, read-out: 72-h MTT IC50 HT29, HT29 cell line
Method in brief: as §3

[11] = tested on: Saos-2; assay: 72-h MTT cytotoxicity assay, Saos-2; type: cell-based; settings: Homo sapiens, read-out: 72-h MTT IC50 Saos-2, Saos-2 cell line
Method in brief: as §3

[12] = tested on: A549; assay: 72-h MTT cytotoxicity assay, A549; type: cell-based; settings: Homo sapiens, read-out: 72-h MTT IC50 A549, A549 cell line
Method in brief: as §3

Sequence of CDK9/cyclin T1 (P50750 whole entry, species assumed): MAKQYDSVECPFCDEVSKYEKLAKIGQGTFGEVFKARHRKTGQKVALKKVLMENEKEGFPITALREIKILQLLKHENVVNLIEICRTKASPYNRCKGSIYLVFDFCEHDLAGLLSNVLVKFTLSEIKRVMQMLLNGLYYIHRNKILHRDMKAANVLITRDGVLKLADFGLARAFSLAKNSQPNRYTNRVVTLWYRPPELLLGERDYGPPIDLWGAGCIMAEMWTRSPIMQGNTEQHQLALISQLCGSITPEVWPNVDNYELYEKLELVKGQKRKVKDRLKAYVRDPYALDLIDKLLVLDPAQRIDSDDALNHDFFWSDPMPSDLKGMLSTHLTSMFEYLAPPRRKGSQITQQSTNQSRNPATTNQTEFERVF
Sequence of CDK9/cyclin T1 (O60563 whole entry partner, species assumed): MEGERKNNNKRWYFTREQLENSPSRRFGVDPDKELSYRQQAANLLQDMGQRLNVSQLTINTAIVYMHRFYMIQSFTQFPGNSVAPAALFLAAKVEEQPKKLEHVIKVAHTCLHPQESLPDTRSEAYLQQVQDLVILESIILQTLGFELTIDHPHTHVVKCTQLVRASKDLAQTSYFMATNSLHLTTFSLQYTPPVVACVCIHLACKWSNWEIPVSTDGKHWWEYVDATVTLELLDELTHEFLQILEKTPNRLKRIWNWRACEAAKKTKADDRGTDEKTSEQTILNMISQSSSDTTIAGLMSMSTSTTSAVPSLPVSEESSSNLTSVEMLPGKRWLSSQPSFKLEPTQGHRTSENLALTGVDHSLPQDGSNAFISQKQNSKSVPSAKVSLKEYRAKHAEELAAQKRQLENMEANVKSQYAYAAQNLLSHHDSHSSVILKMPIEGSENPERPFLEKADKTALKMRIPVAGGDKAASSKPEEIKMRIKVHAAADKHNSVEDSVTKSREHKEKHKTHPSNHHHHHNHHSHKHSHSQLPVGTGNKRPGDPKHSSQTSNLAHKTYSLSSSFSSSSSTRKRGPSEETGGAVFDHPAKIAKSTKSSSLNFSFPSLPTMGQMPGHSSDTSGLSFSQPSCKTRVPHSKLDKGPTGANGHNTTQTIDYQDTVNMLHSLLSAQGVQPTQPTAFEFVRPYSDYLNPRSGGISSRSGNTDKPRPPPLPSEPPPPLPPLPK

SMILES	IC50 [1] [µM]	IC50 [2] [µM]	IC50 [3] [µM]	IC50 [4] [µM]	IC50 [5] [µM]	IC50 [6] [µM]	IC50 [7] [µM]	IC50 [8] [µM]	IC50 [9] [µM]	IC50 [10] [µM]	IC50 [11] [µM]	IC50 [12] [µM]
CN(c1cccc(-c2ccnc(Nc3cccc([N+](=O)[O-])c3)n2)c1)S(C)(=O)=O [Compound 129, N-Methyl-N-{3-[2-(3-nitro-phenylamino)-pyrimidin-4-yl]-phenyl}-methanesulfonamide]	0.02	0.65	0.27	0.83	2.6	0.44	0.13	0.07	–	–	–	–
CN(C)Cc1cccc(-c2ccnc(Nc3ccc(O)cc3)n2)c1 [Compound 81, 4-[4-(3-Dimethylaminomethyl-phenyl)-pyrimidin-2-ylamino]-phenol]	0.02	1.4	1	1.3	–	0.5	1.3	0.11	2.6 ± 2.1	1.2	5	1.5
COc1cccc(-c2ccnc(Nc3cccc(O)c3)n2)c1 [Compound 88, 3-[4-(3-Methoxy-phenyl)-pyrimidin-2-ylamino]-phenol]	0.005	–	0.02	0.57	0.2	1.4	0.08	0.1	–	–	–	–
CN(C)Cc1cccc(-c2ccnc(Nc3cccc(O)c3)n2)c1 [Compound 80, 3-[4-(3-Dimethylaminomethyl-phenyl)-pyrimidin-2-ylamino]-phenol]	0.01	0.72	1.5	0.69	–	0.59	0.83	0.07	2.2 ± 1.6	1.6	4	0.86
COc1ccc(Nc2nccc(-c3cccc(CN(C)C)c3)n2)cn1 [Compound 83, [4-(3-Dimethylaminomethyl-phenyl)-pyrimidin-2-yl]-(6-methoxy-pyridin-3-yl)-amine]	0.02	0.99	7.8	0.38	–	0.65	0.15	0.19	1.3 ± 0.4	0.91	1.6	1.4
COc1cccc(-c2ccnc(Nc3ccc(O)cc3)n2)c1 [Compound 98, 4-[4-(3-Methoxy-phenyl)-pyrimidin-2-ylamino]-phenol]	0.006	–	0.64	1.1	0.59	1.4	0.35	0.13	–	–	–	–
N#Cc1cccc(-c2ccnc(Nc3cccc(O)c3)n2)c1 [Compound 92, 3-[2-(3-Hydroxy-phenylamino)-pyrimidin-4-yl]-benzonitrile]	0.11	–	0.94	2.1	1.4	–	0.08	–	–	–	–	–
O=[N+]([O-])c1cccc(Nc2nccc(-c3cccc(CO)c3)n2)c1 [Compound 91, {3-[2-(3-Nitro-phenylamino)-pyrimidin-4-yl]-phenyl}-methanol]	0.0001	0.55	0.16	0.59	0.87	0.47	0.0007	0.06	–	–	–	–
CN(c1cccc(-c2ccnc(Nc3ccc(O)cc3)n2)c1)S(C)(=O)=O [Compound 131, N-{3-[2-(4-Hydroxy-phenylamino)-pyrimidin-4-yl]-phenyl}-N-methyl-methanesulfonamide]	0.01	1.4	0.14	2.1	2.5	0.45	0.13	0.18	–	–	–	–
COc1ccc(-c2ccnc(Nc3ccc(O)cc3)n2)cc1 [Compound 110, 4-[4-(4-Methoxy-phenyl)-pyrimidin-2-ylamino]-phenol]	0.02	1.5	0.4	0.5	1.3	0.08	–	0.12	–	–	–	–
O=[N+]([O-])c1cccc(Nc2nccc(-c3cccc(CN4CCCC(CO)C4)c3)n2)c1 (stereo not shown) [Compound 105, (1-{3-[2-(3-Nitro-phenylamino)-pyrimidin-4-yl]-benzyl}-piperidin-3-yl)-methanol]	0.01	0.08	2.6	1.2	1.9	0.35	0.01	0.07	–	–	–	–
N#Cc1cccc(-c2ccnc(Nc3ccc(O)cc3)n2)c1 [Compound 93, 3-[2-(4-Hydroxy-phenylamino)-pyrimidin-4-yl]-benzonitrile]	–	–	1	3.1	2.5	–	–	–	–	–	–	–
CCN(Cc1cccc(-c2ccnc(Nc3cccc([N+](=O)[O-])c3)n2)c1)C(C)C [Compound 46, (4-{3-[(Ethyl-isopropyl-amino)-methyl]-phenyl}-pyrimidin-2-yl)-(3-nitro-phenyl)-amine]	0.002	0.13	0.03	–	1.4	0.48	0.1	0.17	0.9 ± 0.3	0.53	1.1	0.96
OCc1cccc(Nc2nccc(-c3cccc(O)c3)n2)c1 [Compound 72, 3-[2-(3-Hydroxymethyl-phenylamino)-pyrimidin-4-yl]-phenol]	–	1.7	0.04	0.15	0.28	0.15	0.03	0.12	–	–	–	–
COc1ccc(-c2ccnc(Nc3cccc(O)c3)n2)cc1 [Compound 76, 3-[4-(4-Methoxy-phenyl)-pyrimidin-2-ylamino]-phenol]	< 0.001	0.12	0.05	0.001	0.01	< 0.001	0.01	0.01	–	–	–	–
CN(c1cccc(-c2ccnc(Nc3cccc(O)c3)n2)c1)S(C)(=O)=O [Compound 130, N-{3-[2-(3-Hydroxy-phenylamino)-pyrimidin-4-yl]-phenyl}-N-methyl-methanesulfonamide]	0.004	1.3	0.12	0.96	1.3	0.62	0.05	0.22	–	–	–	–
CCN(CC)Cc1cccc(-c2ccnc(Nc3cccc([N+](=O)[O-])c3)n2)c1 [Compound 84, [4-(3-Diethylaminomethyl-phenyl)-pyrimidin-2-yl]-(3-nitro-phenyl)-amine]	0.004	0.09	0.57	0.02	3.2	0.02	0.02	0.06	–	–	–	–
